Measurements published in PMC8703873, “Structure and Activity of a Selective Antibiofilm Peptide SK-24 Derived from the NMR Structure of Human Cathelicidin LL-37” (Pharmaceuticals, 2021).
Converted amounts (≈) assume the structure as drawn. Non-standard residues stand in square brackets, D forms with d. Residues, ends and D or L forms follow the SMILES beside them. Bip = N[C@@H](Cc1ccc(-c2ccccc2)cc1)C(=O)O

Assays:
[1] = test system: clinical and antibiotic-resistant pathogens (panel of Table 3); format: cell-based; conditions: all six pathogens
Protocol: (§1) The antibiotic-resistant pathogens used in this study include the Gram-positive bacteria Enterococcus faecium V286-17 and Staphylococcus aureus USA300 LAC and the Gram-negative bacteria Klebsiella pneumoniae E406-17, Acinetobacter baumannii B28-16, Pseudomonas aeruginosa E411-17, and Escherichia coli E423-17. All bacteria were cultivated in tryptic soy broth (TSB) at 37 °C, 220 rpm.
(§2) The antibacterial activity of peptides was evaluated using a standard broth microdilution protocol with minor modifications. In brief, peptides were made at various concentrations, 10 μL per well in a 96-well polystyrene microplate. Logarithmic phase bacterial cultures (i.e., optical density (OD) at 600 nm ≈ 0.5) were diluted to 0.001 OD, and aliquots of 90 μL were added to each well. Untreated bacterial culture and medium were included as positive and negative controls, respectively. Plates were incubated at 37 °C overnight and read at 630 nm using a ChroMate Microplate Reader (Awareness Technology, Palm City, FL, USA). […] Our previously designed peptide 17BIPHE2 [32] was included as a positive control, and RI-10, a peptide without antibacterial activity in rich media, was utilized as a negative control.

S. aureus USA300 LAC [2] = assay: Membrane permeabilization (propidium iodide); format: cell-based, Staphylococcus aureus; conditions: peptide 8 µM; propidium iodide fluorescence, 2 h, PBS, 37 °C
Protocol: (§3) Membrane permeabilization was evaluated as described. In brief, bacteria were inoculated and grown overnight. A second inoculation was made and let bacteria grow to the exponential phase. Bacteria were then spun, washed, and resuspended in the same volume of PBS. A series of peptide solutions (10×) was made via two-fold dilution in a 96-well plate (10 µL each). All wells were aliquoted with 2 µL of propidium iodide (20 µM), followed by adding 88 µL of S. aureus USA300 or A. baumannii B28-16 (OD600 ~0.11 in PBS). The plate was incubated at 37 °C with continuous shaking at 100 rpm in a FLUOstar Omega microplate reader (BMG Labtech Inc., Cary, NC, USA). Fluorescence was recorded every 5 min for 2 h with excitation and emission wavelengths of 485 and 620 nm. The data were analyzed by the vendor’s software using averaged values from duplicated experiments.

[3] = test system: S. aureus USA300 LAC preformed biofilms; assay: Disruption of preformed biofilms (XTT); format: cell-based, Staphylococcus aureus
Protocol: The antibiofilm activities of peptides against the preformed biofilms of A. baumannii B28-16 and S. aureus USA300 LAC were evaluated as follows. Bacteria in the logarithmic growth phase were adjusted to a cell density of 10^5 colony forming unit (CFU)/mL. Two hundred microliter cells were seeded into each well of the 96-well plates. The plates were incubated at 37 °C to allow for the formation of biofilm for 24, 48, and 72 h, respectively. The planktonic cells were then removed, followed by a wash. The biofilms were then treated with 20 µL of 10× two-fold diluted peptides and 180 µL of fresh TSB media for 24 h at 37 °C. Cultures treated with water without peptide served as the positive control, and media treated with water was used as the negative control. To quantify the antibiofilm activity of the peptides, the XTT [2, 3-bis (2-methyloxy-4-nitro-5-sulfophenyl)-2H-tertazolium-5-carboxanilide] assay staining method was used to quantitate the live cells. Absorbance was read at 450 nm using a ChroMate microliter plate reader. The percentage biofilm growth for the peptide was plotted by assuming 100% biofilm growth in untreated bacterial control wells. Data were represented as mean ± standard deviation (SD). The data are statistically significant at p < 0.05. Plots were generated using GraphPad Prism v7 (GraphPad Software, San Diego, CA, USA).

A. baumannii B28-16 = assay: Membrane permeabilization (propidium iodide); format: cell-based, Acinetobacter baumannii; conditions: peptide 16 µM; propidium iodide fluorescence, 2 h, PBS, 37 °C
Protocol: as §3

S. aureus USA300 LAC [4] = assay: Membrane depolarization (DiBAC4(3)); format: cell-based, Staphylococcus aureus; conditions: peptide 8 µM; similar trends at 16 and 32 µM; DiBAC4(3) fluorescence
Protocol: The experiment was conducted as described. In brief, an overnight culture of S. aureus USA300 LAC was subcultured in a fresh TSB medium and grown to the exponential phase. Cells were spun using centrifugation and washed twice with PBS, and resuspended in twice the volume of PBS containing 25 mM glucose and incubated at 37 °C for 15 min. For membrane depolarization measurements, 500 nM (final concentration) of the dye DiBAC4 (3) (bis-(1,3- dibutylbarbituric acid) trimethine oxonol) (AnaSpec, San Jose, CA, USA) was added and vortexed gently. Aliquots of 90 μL of the energized bacteria solution were loaded to the wells, and the plate was fed into a FLUOstar Omega microplate reader. Fluorescence was read for 20 min at excitation and emission wavelengths of 485 and 520 nm, respectively, to get dye normalization. Then 10 μL of diluted peptide solutions were added and gently mixed. Fluorescence readings were recorded for 40 min, where Triton X-100 (0.1%) was used as a positive control.

E. coli E423-17 = format: cell-based, Escherichia coli
Protocol: as §1, §2

MIC range over the pathogens of Table 3 [1]: 2 to 8 µM
MIC (E. coli E423-17): 4 µM (≈ 9.02 µg/mL)
Compound: CC(C)C[C@H](NC(=O)[C@H](CC(N)=O)NC(=O)[C@H](CCCNC(=N)N)NC(=O)[C@@H](CC(C)C)NC(=O)[C@H](Cc1ccc(-c2ccccc2)cc1)NC(=O)[C@H](CC(=O)O)NC(=O)[C@H](CCCCN)NC(=O)[C@@H](CC(C)C)NC(=O)[C@H](CCCNC(=N)N)NC(=O)[C@H](CCC(N)=O)NC(=O)[C@@H](NC(=O)[C@@H](CC(C)C)NC(=O)[C@H](CCCNC(=N)N)NC(=O)[C@H](CCCCN)NC(=O)[C@H](Cc1ccc(-c2ccccc2)cc1)NC(=O)CN)C(C)C)C(=O)N[C@H](C(N)=O)C(C)C [Peptide 17BIPHE2] (H-G[Bip]KR[dL]VQR[dL]KD[Bip][dL]RNLV-NH2; N-terminus assumed)
Membrane permeation (S. aureus USA300 LAC [2]): more powerful
Antibiofilm effect on 24 h preformed biofilms ([3]; 24 h preformed biofilms of S. aureus USA300, XTT): antibiofilm effect in a dose-dependent manner
Staphylococcal biofilm remaining (reduced to) ([3]; 24 h preformed biofilms, peptide 32 μM, relative to untreated control = 100%): ~ 25%
Membrane permeation (A. baumannii B28-16): superior to SK-24
Membrane depolarization ability (order, words) (S. aureus USA300 LAC [4]): GI-20 > 17BIPHE2 > GF-17~SK-24 > LL-37
